Measurements reported in US20090131354A1, “miR-126 REGULATED GENES AND PATHWAYS AS TARGETS FOR THERAPEUTIC INTERVENTION” (priority 2007, published 2009).

System: A549 cells
Experiment: mRNA array gene expression analysis after transfection
Format: cell-based, human

## hsa-miR-126 (UCGUACCGUGAGUAAUAAUGC; synthetic pre-miR form, further chemistry not given here) [Synthetic hsa-miR-126 (Pre-miR™-hsa-miR-126, Ambion cat. no. AM17100)]
  Δ log2 PRNP mRNA: −0.8862 log2
A549, 30 nM
  Δ log2 ABAT mRNA: 0.7144 log2
  Δ log2 ABCC1 mRNA: −1.371 log2
  Δ log2 ABHD3 mRNA: −1.85 log2
  Δ log2 ACSM3 mRNA: 1.028 log2
  Δ log2 ACTR2 mRNA: 0.8699 log2
  Δ log2 ADAM9 mRNA: −1.175 log2
  Δ log2 ADK mRNA: −1.161 log2
  Δ log2 AES mRNA: −1.21 log2
  Δ log2 AHNAK mRNA: −1.362 log2
  Δ log2 ALDH6A1 mRNA: 0.9207 log2
  Δ log2 ANG /// RNASE4 mRNA: 0.8377 log2
  Δ log2 ANKRD46 mRNA: 1.489 log2
  Δ log2 ANPEP mRNA: 1.016 log2
  Δ log2 ANTXR1 mRNA: −1.152 log2
  Δ log2 APOH mRNA: 1.465 log2
  Δ log2 APP mRNA: 0.7951 log2
  Δ log2 AQP3 mRNA: 1.683 log2
  Δ log2 ARFRP1 mRNA: −0.7079 log2
  Δ log2 ARG2 mRNA: 0.8026 log2
  Δ log2 ARHGAP11A mRNA: −0.8591 log2
  Δ log2 ARHGDIA mRNA: −1.479 log2
  Δ log2 ARID5B mRNA: 0.8176 log2
  Δ log2 ARL2BP mRNA: 0.9301 log2
  Δ log2 ARTS-1 mRNA: 0.886 log2
  Δ log2 ASNS mRNA: −0.7092 log2
  Δ log2 ATP6V0E mRNA: 1.493 log2
  Δ log2 ATP6V1D mRNA: −1.206 log2
  Δ log2 B4GALT4 mRNA: −2.01 log2
  Δ log2 B4GALT6 mRNA: −0.8145 log2
  Δ log2 BCL2A1 mRNA: −0.8657 log2
  Δ log2 BCL6 mRNA: 1.023 log2
  Δ log2 BF mRNA: 1.375 log2
  Δ log2 BHLHB2 mRNA: −0.7321 log2
  Δ log2 BTG2 mRNA: 0.7161 log2
  Δ log2 C1R mRNA: 1.372 log2
  Δ log2 C1orf121 mRNA: −1.019 log2
  Δ log2 C2orf26 mRNA: −1.688 log2
  Δ log2 C2orf33 mRNA: −1.066 log2
  Δ log2 C3 mRNA: 1.751 log2
  Δ log2 C5orf15 mRNA: −1.099 log2
  Δ log2 C6orf75 mRNA: −1.159 log2
  Δ log2 C8orf1 mRNA: −1.201 log2
  Δ log2 C8orf32 mRNA: −1.162 log2
  Δ log2 C19orf28 mRNA: −1.583 log2
  Δ log2 CA11 mRNA: 0.8832 log2
  Δ log2 CCND1 mRNA: −0.7871 log2
  Δ log2 CCNG1 mRNA: 0.7209 log2
  Δ log2 CD9 mRNA: −1.226 log2
  Δ log2 CDC37L1 mRNA: −1.198 log2
  Δ log2 CDH4 mRNA: −1.072 log2
  Δ log2 CDH17 mRNA: 1.248 log2
  Δ log2 CEACAM1 mRNA: 1.002 log2
  Δ log2 CEBPD mRNA: 0.9196 log2
  Δ log2 CFH /// CFHL1 mRNA: 0.727 log2
  Δ log2 CGI-38 mRNA: 1.152 log2
  Δ log2 CGI-48 mRNA: 1.409 log2
  Δ log2 CHGB mRNA: 2.066 log2
  Δ log2 CHST11 mRNA: −0.8983 log2
  Δ log2 CMKOR1 mRNA: −0.9537 log2
  Δ log2 COL4A1 mRNA: −1.251 log2
  Δ log2 COL4A2 mRNA: −1.104 log2
  Δ log2 COPS7A mRNA: −0.7137 log2
  Δ log2 CP mRNA: 2.115 log2
  Δ log2 CPE mRNA: 0.8454 log2
  Δ log2 CPS1 mRNA: 0.7371 log2
  Δ log2 CTDSP2 mRNA: 1.119 log2
  Δ log2 CTDSPL mRNA: 0.7348 log2
  Δ log2 CTGF mRNA: 0.7924 log2
  Δ log2 CTPS mRNA: −1.07 log2
  Δ log2 CTSS mRNA: 0.9282 log2
  Δ log2 CXCL5 mRNA: 0.8706 log2
  Δ log2 CYP3A5 mRNA: 0.8111 log2
  Δ log2 DAAM1 mRNA: 0.7598 log2
  Δ log2 DCBLD2 mRNA: −1.329 log2
  Δ log2 DCUN1D1 mRNA: −1.329 log2
  Δ log2 DDC mRNA: 1.008 log2
  Δ log2 DDX3Y mRNA: 0.738 log2
  Δ log2 DHRS2 mRNA: 1.489 log2
  Δ log2 DIO2 mRNA: −1.213 log2
  Δ log2 DIPA mRNA: −0.8054 log2
  Δ log2 DKFZP586A0522 mRNA: 1.054 log2
  Δ log2 DLG5 mRNA: −1.467 log2
  Δ log2 DNAJB9 mRNA: 0.9599 log2
  Δ log2 DPYSL3 mRNA: −0.947 log2
  Δ log2 DSU mRNA: 0.9423 log2
  Δ log2 DUSP6 mRNA: 0.7153 log2
  Δ log2 EEF1D mRNA: 0.9871 log2
  Δ log2 EFHD2 mRNA: −1.109 log2
  Δ log2 EGFR mRNA: −1.333 log2
  Δ log2 EHF mRNA: 2.017 log2
  Δ log2 EML1 mRNA: −1.062 log2
  Δ log2 ENPP4 mRNA: 0.8064 log2
  Δ log2 EPHB2 mRNA: −0.8763 log2
  Δ log2 ERBB3 mRNA: 1.041 log2
  Δ log2 EREG mRNA: −0.7398 log2
  Δ log2 F2RL1 mRNA: −0.7846 log2
  Δ log2 F5 mRNA: 1.115 log2
  Δ log2 F8A1 mRNA: −0.8485 log2
  Δ log2 FAM46A mRNA: 0.8499 log2
  Δ log2 FAS mRNA: 0.9486 log2
  Δ log2 FBXO11 mRNA: 0.8295 log2
  Δ log2 FCMD mRNA: −0.8718 log2
  Δ log2 FGB mRNA: 1.118 log2
  Δ log2 FGFR1 mRNA: −0.7031 log2
  Δ log2 FGFR4 mRNA: 0.9059 log2
  Δ log2 FGL1 mRNA: 2.076 log2
  Δ log2 FLJ11184 mRNA: −0.9264 log2
  Δ log2 FLJ13910 mRNA: 1.05 log2
  Δ log2 FLJ20364 mRNA: −1.021 log2
  Δ log2 FLJ21159 mRNA: −1.12 log2
  Δ log2 FLJ31568 mRNA: 0.732 log2
  Δ log2 FLRT3 mRNA: 1.34 log2
  Δ log2 FMO5 mRNA: 1.277 log2
  Δ log2 FOSL1 mRNA: −0.9348 log2
  Δ log2 GABRA5 mRNA: −1.612 log2
  Δ log2 GALNT4 mRNA: 1.916 log2
  Δ log2 GALNT12 mRNA: −0.8981 log2
  Δ log2 GART mRNA: −1.022 log2
  Δ log2 GATM mRNA: 1.127 log2
  Δ log2 GCH1 mRNA: 0.9389 log2
  Δ log2 GLI2 mRNA: −0.8678 log2
  Δ log2 GLT25D1 mRNA: −1.17 log2
  Δ log2 GLUL mRNA: 0.734 log2
  Δ log2 GNA13 mRNA: 0.7394 log2
  Δ log2 GPR64 mRNA: −1.209 log2
  Δ log2 GREM1 mRNA: −1.049 log2
  Δ log2 GTF2B mRNA: −0.9795 log2
  Δ log2 GTSE1 mRNA: −0.7712 log2
  Δ log2 H2AFY mRNA: −0.841 log2
  Δ log2 H3F3B mRNA: −1.391 log2
  Δ log2 HERC4 mRNA: −1.409 log2
  Δ log2 HES1 mRNA: 0.8154 log2
  Δ log2 HIPK3 mRNA: 0.8255 log2
  Δ log2 HKDC1 mRNA: −0.8911 log2
  Δ log2 HLA-DMA mRNA: 1.267 log2
  Δ log2 HLA-DMB mRNA: 1.253 log2
  Δ log2 HMGA1 mRNA: −0.8703 log2
  Δ log2 IER3IP1 mRNA: 1.015 log2
  Δ log2 IFI16 mRNA: 0.7014 log2
  Δ log2 IFIT1 mRNA: 0.766 log2
  Δ log2 IL6R mRNA: 1.8 log2
  Δ log2 IL6ST mRNA: 0.7356 log2
  Δ log2 IL11 mRNA: −1.98 log2
  Δ log2 ILK mRNA: −1.193 log2
  Δ log2 INHBC mRNA: 0.988 log2
  Δ log2 ITGAV mRNA: −1.397 log2
  Δ log2 ITGB4 mRNA: −1.084 log2
  Δ log2 IVNS1ABP mRNA: −1.126 log2
  Δ log2 JUN mRNA: −1.257 log2
  Δ log2 KCNJ2 mRNA: 0.9432 log2
  Δ log2 KCNJ16 mRNA: 0.8637 log2
  Δ log2 KCNK5 mRNA: 0.9088 log2
  Δ log2 KCTD9 mRNA: −1.102 log2
  Δ log2 KIAA0152 mRNA: −1.121 log2
  Δ log2 KIAA0317 mRNA: −0.9984 log2
  Δ log2 KIAA0882 mRNA: 0.7061 log2
  Δ log2 KLC2 mRNA: −1.308 log2
  Δ log2 KLF4 mRNA: −1.01 log2
  Δ log2 LARP6 mRNA: −1.273 log2
